Laboratory results taken from patent US8247211B2, “Glycopeptide antibiotics” (American Cyanamid Company, priority 2001, dated 2012).
In brackets after ≈: the same amount, converted by molar mass.

Columns and labels:
Test in all cases: In vitro antibacterial evaluation: minimum inhibitory concentration (MIC), broth dilution method
Format in all cases: cell-based
Enterococcus sp. = settings: broth dilution, 18 hours at 35° C.
Procedure, shortened: (§1)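 An MIC is reported for each organism as the least concentration giving inhibition, using broth dilution over 64-0.06 μg/mL with a 5×10^5 CFU/mL inoculum.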

Staphylococcus sp. = settings: strain SMITH GC 4543; broth dilution, 18 hours at 35° C.
Procedure, shortened: as §1

Streptococcus sp. = settings: broth dilution, 18 hours at 35° C.
Procedure, shortened: as §1

Escherichia coli = settings: broth dilution, 18 hours at 35° C.

CC(c1ccccc1)C1NC(=O)CNC(=O)C(CO)NC(=O)C(C(O)C2CNC(=N)N2C2OC(CO)C(O)C(O)C2O)NC(=O)C(C(O)C2CNC(=N)N2)NC(=O)C(Cc2ccc3oc(-c4cccc([N+](=O)[O-])c4)nc3c2)NC1=O (stereo not drawn) [Example 26, Cyclo[3-[2-(3-nitrophenyl)-1,3-benzoxazol-5-yl)alanyl-3-(2-iminoimidazolidin-4-yl)seryl-3-(3-hexopyranosyl-2-iminoimidazolidin-4-yl)serylserylglycyl-β-methylphenylalanyl]]
MIC Enterococcus avium (GC 4558) (Enterococcus sp.; Enterococcus avium (GC 4558)): 32 µg/mL (≈ 28.6 µM) | MIC Enterococcus faecalis (ATCC 29212) (Enterococcus sp.; Enterococcus faecalis (ATCC 29212)): 32 µg/mL (≈ 28.6 µM) | MIC Enterococcus faecalis (GC 2242) (Enterococcus sp.; Enterococcus faecalis (GC 2242)): 64 µg/mL (≈ 57.3 µM) | MIC Enterococcus faecalis (GC 2691) (Enterococcus sp.; Enterococcus faecalis (GC 2691)): 32 µg/mL (≈ 28.6 µM) | MIC Enterococcus faecalis (GC 3059) (Enterococcus sp.; Enterococcus faecalis (GC 3059)): 64 µg/mL (≈ 57.3 µM) | MIC Enterococcus faecalis (GC 4552) (Enterococcus sp.; Enterococcus faecalis (GC 4552)): 64 µg/mL (≈ 57.3 µM) | MIC Enterococcus faecalis (GC 4553) (Enterococcus sp.; Enterococcus faecalis (GC 4553)): 32 µg/mL (≈ 28.6 µM) | MIC Enterococcus faecalis (GC 4554) (Enterococcus sp.; Enterococcus faecalis (GC 4554)): 64 µg/mL (≈ 57.3 µM) | MIC Enterococcus faecalis (GC 6189) (Enterococcus sp.; Enterococcus faecalis (GC 6189)): 32 µg/mL (≈ 28.6 µM) | MIC Enterococcus faecium (GC 2243) (Enterococcus sp.; Enterococcus faecium (GC 2243)): 32 µg/mL (≈ 28.6 µM) | MIC Enterococcus faecium (GC 4556) (Enterococcus sp.; Enterococcus faecium (GC 4556)): 64 µg/mL (≈ 57.3 µM) | MIC Enterococcus faecium (GC 4557) (Enterococcus sp.; Enterococcus faecium (GC 4557)): 8 µg/mL (≈ 7.16 µM) | MIC Enterococcus avium (GC 4558) (Enterococcus sp.): 32 µg/mL (≈ 28.6 µM) | MIC Enterococcus faecalis (ATCC 29212) (Enterococcus sp.): 32 µg/mL (≈ 28.6 µM) | MIC Enterococcus faecalis (GC 2242) (Enterococcus sp.): 64 µg/mL (≈ 57.3 µM) | MIC Enterococcus faecalis (GC 2691) (Enterococcus sp.): 32 µg/mL (≈ 28.6 µM) | MIC Enterococcus faecalis (GC 3059) (Enterococcus sp.): 64 µg/mL (≈ 57.3 µM) | MIC Enterococcus faecalis (GC 4552) (Enterococcus sp.): 64 µg/mL (≈ 57.3 µM) | MIC Enterococcus faecalis (GC 4553) (Enterococcus sp.): 32 µg/mL (≈ 28.6 µM) | MIC Enterococcus faecalis (GC 4554) (Enterococcus sp.): 64 µg/mL (≈ 57.3 µM) | MIC Enterococcus faecalis (GC 6189) (Enterococcus sp.): 32 µg/mL (≈ 28.6 µM) | MIC Enterococcus faecium (GC 2243) (Enterococcus sp.): 32 µg/mL (≈ 28.6 µM) | MIC Enterococcus faecium (GC 4556) (Enterococcus sp.): 64 µg/mL (≈ 57.3 µM) | MIC Enterococcus faecium (GC 4557) (Enterococcus sp.): 8 µg/mL (≈ 7.16 µM) | MIC Staphylococcus aureus-SMITH (GC 4543) (Staphylococcus sp.): 16 µg/mL (≈ 14.3 µM) | MIC Streptococcus agalactiae (GC 4564) (Streptococcus sp.; Streptococcus agalactiae (GC 4564)): 16 µg/mL (≈ 14.3 µM) | MIC Streptococcus pneumoniae (ATCC 6301) (Streptococcus sp.; Streptococcus pneumoniae (ATCC 6301)): 32 µg/mL (≈ 28.6 µM) | MIC Streptococcus pneumoniae (GC 1894) (Streptococcus sp.; Streptococcus pneumoniae (GC 1894)): 16 µg/mL (≈ 14.3 µM) | MIC Streptococcus pneumoniae (GC 4565) (Streptococcus sp.; Streptococcus pneumoniae (GC 4565)): 32 µg/mL (≈ 28.6 µM) | MIC Streptococcus pyogenes (GC 4563) (Streptococcus sp.; Streptococcus pyogenes (GC 4563)): 8 µg/mL (≈ 7.16 µM) | MIC Streptococcus agalactiae (GC 4564) (Streptococcus sp.): 16 µg/mL (≈ 14.3 µM) | MIC Streptococcus pneumoniae (ATCC 6301) (Streptococcus sp.): 32 µg/mL (≈ 28.6 µM) | MIC Streptococcus pneumoniae (GC 1894) (Streptococcus sp.): 16 µg/mL (≈ 14.3 µM) | MIC Streptococcus pneumoniae (GC 4565) (Streptococcus sp.): 32 µg/mL (≈ 28.6 µM) | MIC Streptococcus pyogenes (GC 4563) (Streptococcus sp.): 8 µg/mL (≈ 7.16 µM) | MIC Escherichia coli (ATCC 25922) (Escherichia coli): 64 µg/mL (≈ 57.3 µM) | MIC Escherichia coli (GC 4559) (Escherichia coli): 64 µg/mL (≈ 57.3 µM) | MIC Escherichia coli (GC 4560) (Escherichia coli): 16 µg/mL (≈ 14.3 µM)
